# Data as given in US6531477B1, “6-substituted pyrazolo [3,4-d] pyrimidin-4-ones useful as cyclin dependent kinase inhibitors” (DuPont Pharmaceuticals Company, priority 1998, dated 2003).
row,SMILES,melting point
1,CSc1nn(-c2ccccc2Cl)c2nc(Cc3ccc(O)cc3)[nH]c(=O)c12 [Example 149],243 to 244 °C
2,CCc1nn(-c2ccccc2Br)c2nc(Cc3cccc(O)c3)[nH]c(=O)c12 [Example 153],199 to 201 °C
3,O=c1[nH]c(Cc2ccc([N+](=O)[O-])c(O)c2)nc2c1c(C1CC1)nn2-c1c(Cl)cc(Cl)cc1Cl [Example 76],259 to 260 °C
4,CCc1nn(-c2c(C)cccc2Cl)c2nc(Cc3cccc(OC)c3)[nH]c(=O)c12 [Example 193],188 to 190 °C
5,CCc1nn(-c2c(C)cccc2Cl)c2nc(Cc3ccc(O)cc3)[nH]c(=O)c12 [Example 184],255 to 256 °C
6,CSc1nn(-c2c(Cl)cc(Br)cc2Cl)c2nc(Cc3ccc(O)cc3)[nH]c(=O)c12 [Example 180],255 to 256 °C
7,CSc1nn(-c2c(Cl)cc(Cl)cc2Cl)c2nc(Cc3ccncc3)[nH]c(=O)c12 [Example 5],283 to 287 °C
8,COc1ccc(Cc2nc3c(c(SC)nn3-c3c(Cl)cc(Br)cc3Cl)c(=O)[nH]2)cc1 [Example 183],267 to 268 °C
9,CCc1nn(-c2c(Cl)cccc2Cl)c2nc(Cc3ccc(OC)cc3)[nH]c(=O)c12 [Example 176],220 to 222 °C
10,CCc1nn(-c2c(Cl)cc(C(F)(F)F)cc2Cl)c2nc(Cc3ccc(OC)cc3)[nH]c(=O)c12 [Example 168],240 to 241 °C
11,CCc1nn(-c2c(C)cccc2Cl)c2nc(Cc3ccc(OC)cc3)[nH]c(=O)c12 [Example 191],220 to 221 °C
12,CSc1nn(-c2c(Cl)cc(Cl)cc2Cl)c2nc(Cc3cccc([N+](=O)[O-])c3)[nH]c(=O)c12 [Example 7],243 to 255 °C
13,CCc1nn(-c2c(Cl)cc(Cl)cc2Cl)c2nc(Cc3cc(OC)c(OC)c(OC)c3)[nH]c(=O)c12 [Example 24],224 to 226 °C
14,COc1cccc(Cc2nc3c(c(C(C)C)nn3-c3c(Cl)cc(S(N)(=O)=O)cc3Cl)c(=O)[nH]2)c1 [Example 225],244 to 245 °C
15,CSc1nn(-c2c(F)cccc2Cl)c2nc(Cc3cccc(O)c3)[nH]c(=O)c12 [Example 179],252 to 253 °C
16,COc1ccc(Cc2nc3c(c(SC)nn3-c3c(F)cccc3Cl)c(=O)[nH]2)cc1 [Example 181],193 to 194 °C
17,CCc1nn(-c2cc(C(F)(F)F)ccc2Cl)c2nc(Cc3cccc(O)c3)[nH]c(=O)c12 [Example 227],227 to 229 °C
18,CCc1nn(-c2c(Cl)cc(Cl)cc2Cl)c2nc(Cc3c[nH]c4ccccc34)[nH]c(=O)c12 [Example 18],296 to 299 °C
19,CCc1nn(-c2c(Cl)cc(Br)cc2Cl)c2nc(Cc3cccc(O)c3)[nH]c(=O)c12 [Example 170],242 to 244 °C
20,CCc1nn(-c2c(Cl)cc(C(=O)NC(C)(C)C)cc2Cl)c2nc(Cc3cccc(OC)c3)[nH]c(=O)c12 [Example 238],222 to 224 °C
21,CSc1nn(-c2c(C)cccc2Cl)c2nc(Cc3ccc(O)cc3)[nH]c(=O)c12 [Example 190],264 to 266 °C

row,SMILES,melting point
1,COc1ccc(Cc2nc3c(c(SC)nn3-c3c(C)cccc3Cl)c(=O)[nH]2)cc1 [Example 186],233 to 235 °C
2,O=c1[nH]c(Cc2ccc3[nH]ncc3c2)nc2c1c(C1CC1)nn2-c1c(Cl)cc(Cl)cc1Cl [Example 72],274 to 283 °C
3,CCc1nn(-c2c(Cl)cc(C(F)(F)F)cc2Cl)c2nc(Cc3cccc(OC)c3)[nH]c(=O)c12 [Example 166],192 to 193 °C
4,COc1cccc(Cc2nc3c(c(SC)nn3-c3c(F)cccc3Cl)c(=O)[nH]2)c1 [Example 182],244 to 245 °C
5,CCc1nn(-c2ccccc2F)c2nc(Cc3cccc(O)c3)[nH]c(=O)c12 [Example 155],235 to 237 °C
6,CCc1nn(-c2c(Cl)cc(C(=O)O)cc2Cl)c2nc(Cc3ccc(N)cc3)[nH]c(=O)c12 [Example 205],226 to 228 °C
7,CCc1nn(-c2c(Cl)cccc2Cl)c2nc(Cc3ccc(O)cc3)[nH]c(=O)c12 [Example 171],262 to 263 °C
8,CCc1nn(-c2c(C)cccc2Cl)c2nc(Cc3ccc(O)cc3)[nH]c(=O)c12 [Example 192],257 to 259 °C
9,CSc1nn(-c2c(Cl)cc(Cl)cc2Cl)c2nc(Cc3ccc4c(c3)OCO4)[nH]c(=O)c12 [Example 13],257 to 260 °C
10,CCc1nn(-c2c(Cl)cc(Br)cc2Cl)c2nc(Cc3cccc(OC)c3)[nH]c(=O)c12 [Example 174],232 to 233 °C
11,CCc1nn(-c2ccccc2F)c2nc(Cc3cccc(OC)c3)[nH]c(=O)c12 [Example 154],193 to 194 °C
12,CCc1nn(-c2c(Cl)cc(Cl)cc2Cl)c2nc(Cc3c[nH]c4ccc(OC)cc34)[nH]c(=O)c12 [Example 40],295 to 298 °C
13,CCc1nn(-c2c(Cl)cc(Cl)cc2Cl)c2nc(Cc3ccc(O)c([N+](=O)[O-])c3)[nH]c(=O)c12 [Example 26],263 to 266 °C
14,CCc1nn(-c2c(Cl)cccc2Cl)c2nc(Cc3cccc(O)c3)[nH]c(=O)c12 [Example 173],242 to 244 °C
15,COc1ccc(Cc2nc3c(c(SC)nn3-c3c(Cl)cc(Cl)cc3Cl)c(=O)[nH]2)cc1OC [Example 6],226 to 230 °C
16,CCc1nn(-c2ccccc2Br)c2nc(Cc3ccc(N)cc3)[nH]c(=O)c12 [Example 152],246 to 249 °C
17,CCc1nn(-c2c(Cl)cc(C(=O)O)cc2Cl)c2nc(Cc3cccc(O)c3)[nH]c(=O)c12 [Example 198],280 to 282 °C
18,CC(C)c1nn(-c2ccccc2Cl)c2nc(Cc3cccc(O)c3)[nH]c(=O)c12 [Example 143],227 to 228 °C
19,COc1ccc(Cc2nc3c(c(SC)nn3-c3c(C)cc(Cl)cc3Cl)c(=O)[nH]2)cc1 [Example 185],252 to 255 °C
20,CCc1nn(-c2ccccc2F)c2nc(Cc3ccc(N)cc3)[nH]c(=O)c12 [Example 157],231 to 233 °C
21,COc1ccc(Cc2nc3c(c(SC)nn3-c3ccccc3Cl)c(=O)[nH]2)cc1 [Example 150],227 to 228 °C

# Further lines, results first:
row,melting point,SMILES
1,225 to 227 °C,Cc1ccncc1Cc1nc2c(c(C(C)C)nn2-c2c(Cl)cc(Cl)cc2Cl)c(=O)[nH]1 [Example 65]
2,223 to 225 °C,CC(C)c1nn(-c2c(Cl)cc(Cl)cc2Cl)c2nc(Cc3ccc(N)cc3)[nH]c(=O)c12 [Example 52]
3,205 to 206 °C,Cc1ccc(Cc2nc3c(c(C(C)C)nn3-c3c(Cl)cc(Cl)cc3Cl)c(=O)[nH]2)cc1 [Example 62]
4,229 to 230 °C,CC(C)c1nn(-c2c(Cl)cc(Cl)cc2Cl)c2nc(Cc3ccc(Br)cc3)[nH]c(=O)c12 [Example 59]
5,212 to 213 °C,Cc1cc(Cl)cc(Cl)c1-n1nc(C(C)C)c2c(=O)[nH]c(Cc3ccc(N)cc3)nc21 [Example 217]
6,212 to 214 °C,"COc1cccc(Cc2nc3n(-c4c(Cl)cc(C=O)cc4Cl)[nH]c(C(C)C)c-3c(=O)n2)c1 [Example 138, 1-(2,6-Dichloro-4-formylphenyl)-3-isopropyl-6-(3-methoxybenzyl)pyrazolo[3,4-d]pyrimidin-4-one]"
7,246 to 248 °C,"CCc1[nH]n(-c2c(Cl)cc(Cl)cc2Cl)c2nc(C(O)c3ccccc3)nc(=O)c1-2 (racemic) [Example 117, (+/−)-1-(2,4,6-Trichlorophenyl)-3-ethyl-6-(α-hydroxybenzyl)pyrazolo[3,4-d]pyrimidin-4-one]"
8,206 to 207 °C,"Cc1cccc(Cl)c1-n1[nH]c(C(C)C)c2c(=O)nc(Cc3ccc(N)cc3)nc1-2 [Example 127, 1-(2-Chloro-6-methylphenyl)-3-isopropyl-6-(4-aminobenzyl)pyrazolo[3,4-d]pyrimidin-4-one]"
9,245 to 248 °C,"COc1cccc(Cc2nc3n(-c4c(Cl)cc(Cl)cc4Cl)[nH]c(SC)c-3c(=O)n2)c1 [Example 1, 1-(2,4,6-Trichlorophenyl)-3-(methylthio)-6-(3-methoxybenzyl)pyrazolo[3,4-d]pyrimidin-4-one]"
10,244 to 246 °C,CNc1ccc(Cc2nc3c(c(C(C)C)nn3-c3c(Cl)cc(Cl)cc3Cl)c(=O)[nH]2)cc1 [Example 67]
11,292 to 294 °C,CCc1nn(-c2c(Cl)cc(C(=O)O)cc2Cl)c2nc(Cc3ccc(OC)cc3)[nH]c(=O)c12 [Example 195]
12,273 to 275 °C,CC(C)c1nn(-c2c(Cl)cc(Cl)cc2Cl)c2nc(Cc3ccncc3)[nH]c(=O)c12 [Example 61]
13,212 to 214 °C,"CC(C)c1[nH]n(-c2c(Cl)cccc2Cl)c2nc(Cc3ccc(CC(=O)O)cc3)nc(=O)c1-2 [Example 123, 1-(2,6-Dichlorophenyl)-3-isopropyl-6-(4-(carboxymethyl)benzyl)pyrazolo[3,4-d]pyrimidin-4-one]"
14,218 to 220 °C,"CC(C)c1[nH]n(-c2c(Cl)cc(Cl)cc2Cl)c2nc(Cc3ccc(NC(=O)OCCN(C)C)cc3)nc(=O)c1-2 [Example 133, 1-(2,4,6-Trichlorophenyl)-3-isopropyl-6-(4-(2-(dimethylamino)ethoxycarbonylamino)benzyl)pyrazolo[3,4-d]pyrimidin-4-one]"
15,168 to 169 °C,"CCOC(=O)Cc1ccc(Cc2nc3n(-c4c(Cl)cccc4Cl)[nH]c(C(C)C)c-3c(=O)n2)cc1 [Example 122, 1-(2,6-Dichlorophenyl)-3-isopropyl-6-(4-(carbethoxymethyl)benzyl)pyrazolo[3,4-d]pyrimidin-4-one]"
16,210 to 217 °C (dec.),CC(C)c1nn(-c2c(Cl)cc(Cl)cc2Cl)c2nc(Cc3ccc(N)c(O)c3)[nH]c(=O)c12 [Example 55]
17,238 to 240 °C,COc1cc(Cc2nc3c(c(C(C)C)nn3-c3c(Cl)cc(Cl)cc3Cl)c(=O)[nH]2)ccc1N [Example 54]
18,294 to 296 °C,CSc1nn(-c2c(Cl)cc(Cl)cc2Cl)c2nc(Cc3ccc(O)cc3)[nH]c(=O)c12 [Example 9]
19,245 to 248 °C,CC(C)c1nn(-c2c(Cl)cc(Cl)cc2Cl)c2nc(Cc3cnccc3Cl)[nH]c(=O)c12 [Example 69]
20,214 to 215 °C,CC(C)c1nn(-c2c(Cl)cc(Cl)cc2Cl)c2nc(Cc3cccnc3)[nH]c(=O)c12 [Example 64]
21,263 to 265 °C,COc1ccc(Cc2nc3c(c(C(F)(F)F)nn3-c3c(Cl)cc(Cl)cc3Cl)c(=O)[nH]2)cc1 [Example 82]
